A word on the IC50: it is the concentration that inhibits the measured activity by half.

Our source for the IC50 values is ChEMBL document CHEMBL3351835, “Anti-inflammatory diterpenoids from the root bark of Acanthopanax gracilistylus” (J Nat Prod, 2014).

Common to all, as to assay type: functional, cell-based
Assay [1] has as its system PBMC. The experiment in a line: Antiinflammatory activity in human PBMC assessed as inhibition of LPS-induced IL-1beta expression pretreated 1 hr before LPS challenge followed by incubated for 16 hrs by flow cytometry. (In general: In flow cytometry, cells or beads pass a laser one at a time.)
The subject of assay [2] is PBMC. Briefly: Antiinflammatory activity in human PBMC assessed as inhibition of LPS-induced IL-8 expression pretreated 1 hr before LPS challenge followed by incubated for 16 hrs by flow cytometry.
Assay [3] concerns PBMC. Briefly: Antiinflammatory activity in human PBMC assessed as inhibition of LPS-induced TNFalpha expression pretreated 1 hr before LPS challenge followed by incubated for 16 hrs by flow cytometry.

With `COC(=O)[C@]1(C)CCC[C@@]2(C)[C@@H]3CC[C@@H]4C[C@]3(C=C4C=O)CC[C@@H]21`, the IC50 in the assay on PBMC [1] stood at 5 nM; in the assay on PBMC [2] it was 6 nM; in the assay with PBMC [3], 400 nM.

On to `C=C[C@]1(C)C=C2C(=O)C[C@H]3[C@@](C)(CCC[C@@]3(C)C(=O)O)[C@@H]2CC1`, for which the half-maximal inhibitory concentration (IC50) with PBMC [1] is 30 nM; with PBMC [2] it was over 10000 nM; in the assay with PBMC [3] it was 7 nM.

Regarding `C[C@@]12CCC[C@@](C)(C(=O)O)[C@H]1CC[C@@]13C[C@@H](CC[C@@H]21)[C@]1(CO)O[C@H]31`, the half-inhibitory concentration (IC50) was 100 nM in the assay on PBMC [1], over 10000 nM in the assay on PBMC [2] and 60 nM in the assay with PBMC [3].

Turning to `Cc1cc(O)c2c(c1O)C(=O)C[C@@H]1[C@](C)(C(=O)O)CCC[C@@]21C`, the half-maximal inhibitory concentration (IC50) with PBMC [1] was over 10000 nM; with PBMC [2], over 10000 nM; in the assay on PBMC [3] it was 8 nM.

As for `C[C@@H]1C[C@H]2[C@@H]3CCC4=CC(=O)C=C[C@]4(C)[C@@]3(F)[C@@H](O)C[C@]2(C)[C@@]1(O)C(=O)CO` [DEXAMETHASONE], the IC50 is 8 nM in the assay with PBMC [1], 9 nM with PBMC [2] and 2 nM in the assay with PBMC [3].

Consider `C[C@@]12CCC[C@@](C)(C(=O)O)[C@H]1CC(=O)[C@]13C[C@@H](CO)[C@H](CC[C@H]12)C3`, for which the half-maximal inhibitory concentration (IC50) is 100 nM with PBMC [1], over 10000 nM with PBMC [2] and 100 nM in the assay with PBMC [3].

For the compound `C[C@]12CCC3=C(CC[C@@H]4[C@](C)(C(=O)O)CCC[C@@]34C)[C@H]1OC[C@@H]2O`, the values for the IC50 in the assay on PBMC [1], in the assay on PBMC [2] and in the assay on PBMC [3] were over 10000 nM, 1 nM and over 10000 nM, respectively.

On to `C[C@@]12CCC[C@@](C)(C(=O)O)[C@H]1CC[C@]13C=C(C(=O)O)[C@H](CC[C@H]12)C3`, for which the values for the IC50 in the assay with PBMC [1], with PBMC [2] and in the assay with PBMC [3] were 7500 nM, 3 nM and 2100 nM, respectively.

Take `C[C@@]12CCC[C@@](C)(C(=O)O)[C@H]1CC(=O)[C@]13CC(=O)[C@H](CC[C@H]12)C3`: the concentration for half-maximal inhibition (IC50) with PBMC [1] is 1 nM; in the assay on PBMC [2] it was over 10000 nM; in the assay on PBMC [3], 2 nM.

Turning to `C=C1C[C@@]23CC[C@H]4[C@@](C)(CCC[C@@]4(C)C(=O)O)[C@@H]2CC[C@@H]1C3` [KAURENOIC ACID], the results for the concentration for half-maximal inhibition (IC50) in the assay on PBMC [1], in the assay on PBMC [2] and in the assay with PBMC [3] were 10 nM, 7700 nM and 2 nM, respectively.

On to `C[C@@]12CCC[C@@](C)(C(=O)O)[C@H]1CC[C@]13C=C(CO)[C@H](CC[C@H]12)C3`, for which the 50% inhibitory concentration (IC50) in the assay with PBMC [1] was 800 nM; in the assay on PBMC [2] it was over 10000 nM; in the assay with PBMC [3] it was 10 nM.

Consider `C[C@@]12CCC[C@@](C)(C(=O)O)[C@H]1CC(=O)[C@@]13C[C@@H](CC[C@H]12)[C@H](O)C3`, for which the IC50 with PBMC [1] is 4 nM; in the assay with PBMC [2], over 10000 nM; in the assay with PBMC [3], 20 nM.
